Test results from publication PMC8037182, “Solvothermal Synthesis of Multiple Dihydropyrimidinones at a Time as Inhibitors of Eg5” (Molecules, 2021).

Legend:
Hela cell line = test: Cytotoxicity MTS assay, Hela cell line; assay type: cell-based; settings: for OD490 value, Mean / OD490 value, Well 1 / OD490 value, Well 2 / OD490 value, Well 3: Hela cell line, MTS;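 as to OD490 value, Mean: blank control wells received 0.025% DMSO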;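 as to OD490 value, Well 1: blank control wells received 0.025% DMSO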;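 as to OD490 value, Well 2: blank control wells received 0.025% DMSO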;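 as to OD490 value, Well 3: blank control wells received 0.025% DMSO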
Method in brief: (§1)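 Cells seeded at 1000 per well, grown 24 h, then exposed to compound (0.5–100 µM final) for 24 h with 0.025% DMSO blank. MTS reagent added for 2 h at 37 °C, absorbance read at 490 nm; IC50 from non-linear regression of % viability versus concentration, three independent duplicate experiments.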

L929 cell line = test: Cytotoxicity MTS assay, L929 cell line; assay type: cell-based; settings: for OD490 values, Mean / OD490 values, Well 1 / OD490 values, Well 2 / OD490 values, Well 3: L929 cell line
Method in brief: as §1

SMILES: CCOC(=O)c1[nH]c(C2NC(=O)NC(C)=C2C(=O)Nc2ccc(Cl)cc2)c(C(=O)OCC)c1C (centres unmarked) [D7]
- OD490 value, Mean (Hela cell line; 0.5μM, first assay): 2.5908
- OD490 value, Well 1 (Hela cell line; 0.5μM, first assay): 2.5621
- OD490 value, Well 2 (Hela cell line; 0.5μM, first assay): 2.6393
- OD490 value, Well 3 (Hela cell line; 0.5μM, first assay): 2.5711
- OD490 value, Mean (Hela cell line; 0.5μM, second assay): 2.6768
- OD490 value, Well 1 (Hela cell line; 0.5μM, second assay): 2.5588
- OD490 value, Well 2 (Hela cell line; 0.5μM, second assay): 2.6974
- OD490 value, Well 3 (Hela cell line; 0.5μM, second assay): 2.7741
- OD490 value, Mean (Hela cell line; 0.5μM, third assay): 2.6551
- OD490 value, Well 1 (Hela cell line; 0.5μM, third assay): 2.6545
- OD490 value, Well 2 (Hela cell line; 0.5μM, third assay): 2.6358
- OD490 value, Well 3 (Hela cell line; 0.5μM, third assay): 2.6749
- OD490 value, Mean (Hela cell line; 1μM, first assay): 2.4582
- OD490 value, Well 1 (Hela cell line; 1μM, first assay): 2.4152
- OD490 value, Well 2 (Hela cell line; 1μM, first assay): 2.4632
- OD490 value, Well 3 (Hela cell line; 1μM, first assay): 2.4962
- OD490 value, Mean (Hela cell line; 1μM, second assay): 2.6058
- OD490 value, Well 1 (Hela cell line; 1μM, second assay): 2.8624
- OD490 value, Well 2 (Hela cell line; 1μM, second assay): 2.6541
- OD490 value, Well 3 (Hela cell line; 1μM, second assay): 2.3010
- OD490 value, Mean (Hela cell line; 1μM, third assay): 2.6692
- OD490 value, Well 1 (Hela cell line; 1μM, third assay): 2.6686
- OD490 value, Well 2 (Hela cell line; 1μM, third assay): 2.5980
- OD490 value, Well 3 (Hela cell line; 1μM, third assay): 2.7410
- OD490 value, Mean (Hela cell line; 10μM, first assay): 2.5790
- OD490 value, Well 1 (Hela cell line; 10μM, first assay): 2.7201
- OD490 value, Well 2 (Hela cell line; 10μM, first assay): 2.4926
- OD490 value, Well 3 (Hela cell line; 10μM, first assay): 2.5244
- OD490 value, Mean (Hela cell line; 10μM, second assay): 2.5914
- OD490 value, Well 1 (Hela cell line; 10μM, second assay): 2.3698
- OD490 value, Well 2 (Hela cell line; 10μM, second assay): 2.8523
- OD490 value, Well 3 (Hela cell line; 10μM, second assay): 2.5521
- OD490 value, Mean (Hela cell line; 10μM, third assay): 2.6067
- OD490 value, Well 1 (Hela cell line; 10μM, third assay): 2.5657
- OD490 value, Well 2 (Hela cell line; 10μM, third assay): 2.6845
- OD490 value, Well 3 (Hela cell line; 10μM, third assay): 2.5698
- OD490 value, Mean (Hela cell line; 25μM, first assay): 2.6458
- OD490 value, Well 1 (Hela cell line; 25μM, first assay): 2.7056
- OD490 value, Well 2 (Hela cell line; 25μM, first assay): 2.6228
- OD490 value, Well 3 (Hela cell line; 25μM, first assay): 2.6091
- OD490 value, Mean (Hela cell line; 25μM, second assay): 2.6325
- OD490 value, Well 1 (Hela cell line; 25μM, second assay): 2.5901
- OD490 value, Well 2 (Hela cell line; 25μM, second assay): 2.6301
- OD490 value, Well 3 (Hela cell line; 25μM, second assay): 2.6774
- OD490 value, Mean (Hela cell line; 25μM, third assay): 2.6849
- OD490 value, Well 1 (Hela cell line; 25μM, third assay): 2.6987
- OD490 value, Well 2 (Hela cell line; 25μM, third assay): 2.6457
- OD490 value, Well 3 (Hela cell line; 25μM, third assay): 2.7102
- OD490 value, Mean (Hela cell line; 50μM, first assay): 2.4563
- OD490 value, Well 1 (Hela cell line; 50μM, first assay): 2.5239
- OD490 value, Well 2 (Hela cell line; 50μM, first assay): 2.4847
- OD490 value, Well 3 (Hela cell line; 50μM, first assay): 2.3602
- OD490 value, Mean (Hela cell line; 50μM, second assay): 2.2166
- OD490 value, Well 1 (Hela cell line; 50μM, second assay): 2.3365
- OD490 value, Well 2 (Hela cell line; 50μM, second assay): 2.0124
- OD490 value, Well 3 (Hela cell line; 50μM, second assay): 2.3010
- OD490 value, Mean (Hela cell line; 50μM, third assay): 2.4441
- OD490 value, Well 1 (Hela cell line; 50μM, third assay): 2.4565
- OD490 value, Well 2 (Hela cell line; 50μM, third assay): 2.6544
- OD490 value, Well 3 (Hela cell line; 50μM, third assay): 2.2214
- OD490 value, Mean (Hela cell line; 100μM, first assay): 1.9660
- OD490 value, Well 1 (Hela cell line; 100μM, first assay): 1.8876
- OD490 value, Well 2 (Hela cell line; 100μM, first assay): 1.9083
- OD490 value, Well 3 (Hela cell line; 100μM, first assay): 2.1021
- OD490 value, Mean (Hela cell line; 100μM, second assay): 1.8447
- OD490 value, Well 1 (Hela cell line; 100μM, second assay): 1.6754
- OD490 value, Well 2 (Hela cell line; 100μM, second assay): 1.8601
- OD490 value, Well 3 (Hela cell line; 100μM, second assay): 1.9987
- OD490 value, Mean (Hela cell line; 100μM, third assay): 1.9092
- OD490 value, Well 1 (Hela cell line; 100μM, third assay): 1.9698
- OD490 value, Well 2 (Hela cell line; 100μM, third assay): 1.9033
- OD490 value, Well 3 (Hela cell line; 100μM, third assay): 1.8546
- IC50 (Hela cell line; MTS assay, 24 h exposure): > 150 µM
- OD490 values, Mean (L929 cell line; 0.5μM, first assay): 1.2964
- OD490 values, Well 1 (L929 cell line; 0.5μM, first assay): 1.2432
- OD490 values, Well 2 (L929 cell line; 0.5μM, first assay): 1.3324
- OD490 values, Well 3 (L929 cell line; 0.5μM, first assay): 1.3135
- OD490 values, Mean (L929 cell line; 0.5μM, second assay): 1.6723
- OD490 values, Well 1 (L929 cell line; 0.5μM, second assay): 1.6985
- OD490 values, Well 2 (L929 cell line; 0.5μM, second assay): 1.7484
- OD490 values, Well 3 (L929 cell line; 0.5μM, second assay): 1.5699
- OD490 values, Mean (L929 cell line; 0.5μM, third assay): 1.6351
- OD490 values, Well 1 (L929 cell line; 0.5μM, third assay): 1.6545
- OD490 values, Well 2 (L929 cell line; 0.5μM, third assay): 1.5521
- OD490 values, Well 3 (L929 cell line; 0.5μM, third assay): 1.6987
- OD490 values, Mean (L929 cell line; 1μM, first assay): 1.2921
- OD490 values, Well 1 (L929 cell line; 1μM, first assay): 1.3838
- OD490 values, Well 2 (L929 cell line; 1μM, first assay): 1.2582
- OD490 values, Well 3 (L929 cell line; 1μM, first assay): 1.2343
- OD490 values, Mean (L929 cell line; 1μM, second assay): 1.6805
- OD490 values, Well 1 (L929 cell line; 1μM, second assay): 1.6879
- OD490 values, Well 2 (L929 cell line; 1μM, second assay): 1.6582
- OD490 values, Well 3 (L929 cell line; 1μM, second assay): 1.6955
- OD490 values, Mean (L929 cell line; 1μM, third assay): 1.6677
- OD490 values, Well 1 (L929 cell line; 1μM, third assay): 1.6254
- OD490 values, Well 2 (L929 cell line; 1μM, third assay): 1.6358
- OD490 values, Well 3 (L929 cell line; 1μM, third assay): 1.7420
- OD490 values, Mean (L929 cell line; 10μM, first assay): 1.2890
- OD490 values, Well 1 (L929 cell line; 10μM, first assay): 1.2982
- OD490 values, Well 2 (L929 cell line; 10μM, first assay): 1.3257
- OD490 values, Well 3 (L929 cell line; 10μM, first assay): 1.2432
- OD490 values, Mean (L929 cell line; 10μM, second assay): 1.6485
- OD490 values, Well 1 (L929 cell line; 10μM, second assay): 1.6354
- OD490 values, Well 2 (L929 cell line; 10μM, second assay): 1.6254
- OD490 values, Well 3 (L929 cell line; 10μM, second assay): 1.6847
- OD490 values, Mean (L929 cell line; 10μM, third assay): 1.7036
- OD490 values, Well 1 (L929 cell line; 10μM, third assay): 1.5935
- OD490 values, Well 2 (L929 cell line; 10μM, third assay): 1.8852
- OD490 values, Well 3 (L929 cell line; 10μM, third assay): 1.6320
- OD490 values, Mean (L929 cell line; 25μM, first assay): 1.2098
- OD490 values, Well 1 (L929 cell line; 25μM, first assay): 1.2509
- OD490 values, Well 2 (L929 cell line; 25μM, first assay): 1.2839
- OD490 values, Well 3 (L929 cell line; 25μM, first assay): 1.0945
- OD490 values, Mean (L929 cell line; 25μM, second assay): 1.5137
- OD490 values, Well 1 (L929 cell line; 25μM, second assay): 1.4655
- OD490 values, Well 2 (L929 cell line; 25μM, second assay): 1.5869
- OD490 values, Well 3 (L929 cell line; 25μM, second assay): 1.4888
- OD490 values, Mean (L929 cell line; 25μM, third assay): 1.4100
- OD490 values, Well 1 (L929 cell line; 25μM, third assay): 1.4658
- OD490 values, Well 2 (L929 cell line; 25μM, third assay): 1.4441
- OD490 values, Well 3 (L929 cell line; 25μM, third assay): 1.3201
- OD490 values, Mean (L929 cell line; 50μM, first assay): 1.1393
- OD490 values, Well 1 (L929 cell line; 50μM, first assay): 1.0255
- OD490 values, Well 2 (L929 cell line; 50μM, first assay): 1.3097
- OD490 values, Well 3 (L929 cell line; 50μM, first assay): 1.0826
- OD490 values, Mean (L929 cell line; 50μM, second assay): 1.3764
- OD490 values, Well 1 (L929 cell line; 50μM, second assay): 1.3685
- OD490 values, Well 2 (L929 cell line; 50μM, second assay): 1.3652
- OD490 values, Well 3 (L929 cell line; 50μM, second assay): 1.3955
- OD490 values, Mean (L929 cell line; 50μM, third assay): 1.3402
- OD490 values, Well 1 (L929 cell line; 50μM, third assay): 1.3584
- OD490 values, Well 2 (L929 cell line; 50μM, third assay): 1.2635
- OD490 values, Well 3 (L929 cell line; 50μM, third assay): 1.3987
- OD490 values, Mean (L929 cell line; 100μM, first assay): 0.7147
- OD490 values, Well 1 (L929 cell line; 100μM, first assay): 0.7427
- OD490 values, Well 2 (L929 cell line; 100μM, first assay): 0.7798
- OD490 values, Well 3 (L929 cell line; 100μM, first assay): 0.6215
- OD490 values, Mean (L929 cell line; 100μM, second assay): 0.8285
- OD490 values, Well 1 (L929 cell line; 100μM, second assay): 0.8306
- OD490 values, Well 2 (L929 cell line; 100μM, second assay): 0.7562
- OD490 values, Well 3 (L929 cell line; 100μM, second assay): 0.8988
- OD490 values, Mean (L929 cell line; 100μM, third assay): 0.8420
- OD490 values, Well 1 (L929 cell line; 100μM, third assay): 0.8635
- OD490 values, Well 2 (L929 cell line; 100μM, third assay): 0.8992
- OD490 values, Well 3 (L929 cell line; 100μM, third assay): 0.7632
- IC50 (L929 cell line; MTS assay, 24 h exposure, ordinary fibroblast, not cancer cells): 94.7 µM
